This note sets out measurements from US20230348362A1, “LIPID COMPOUNDS AND LIPID NANOPARTICLE COMPOSITIONS” (Suzhou Abogen Biosciences Co., Ltd., priority 2021, published 2023).

Assay type in all cases: physicochemical
Data set [1] in a line: Lipid nanoparticle size and polydispersity by dynamic light scattering. Conditions: LNP of lipid/DSPC/cholesterol/PEG-lipid 50:10:38.5:1.5 encapsulating hEPO mRNA. As to the method: (§1) Briefly, a cationic lipid provided herein, DSPC, cholesterol, and PEG-lipid were solubilized in ethanol at a molar ratio of 50:10:38.5:1.5, and mRNA were diluted in 10 to 50 mM citrate buffer, pH=4. The LNPs were prepared at a total lipid to mRNA weight ratio of approximately 10:1 to 30:1 by mixing the ethanolic lipid solution with the aqueous mRNA solution at a volume ratio of 1:3 using a microfluidic apparatus, total flow rate ranging from 9-30 mL/min. Ethanol were thereby removed and replaced by DPBS using dialysis. Finally, the lipid nanoparticles were filtered through a […] sterile filter.
(§2) Lipid nanoparticle size were determined by dynamic light scattering using a Malvern Zetasizer Nano ZS (Malvern UK) using a […] backscatter detection mode. The encapsulation efficiency of lipid nanoparticles were determined using a Quant-it Ribogreen RNA quantification assay kit (Thermo Fisher Scientific, UK) according to the manufacturer's instructions.

Data set [2] is described as follows: Encapsulation efficiency of lipid nanoparticles, Quant-it Ribogreen RNA assay. Conditions: LNP of lipid/DSPC/cholesterol/PEG-lipid 50:10:38.5:1.5 encapsulating hEPO mRNA. The procedure: as §1, §2
Data set [3] can be described thus: Apparent pKa of LNP formulations, TNS fluorescence assay. Conditions: LNP cationic lipid/DSPC/cholesterol/DMG-PEG 50/10/38.5/1.5 mol %. The procedure: As reported in literature, the apparent pKa of LNP formulations correlates with the delivery efficiency of LNPs for nucleic acids in vivo. The apparent pKa of each formulation was determined using an assay based on fluorescence of 2-(p-toluidino)-6-napthalene sulfonic acid (TNS). LNP formulations comprising of cationic lipid/DSPC/cholesterol/DMG-PEG (50/10/38.5/1.5 mol %) in PBS were prepared as described above. TNS was prepared as a 300 μM stock solution in distilled water. LNP formulations were diluted to 0.1 mg/mL total lipid in 3 mL of buffered solutions containing 50 mM sodium citrate, 50 mM sodium phosphate, 50 mM sodium borate, and 30 mM sodium chloride where the pH ranged from 3 to 9. An aliquot of the TNS solution was added to give a final concentration of […] and following vortex mixing fluorescence intensity was measured at room temperature in a Molecular Devices Spectramax iD3 spectrometer using excitation and mission wavelengths of 325 nm and 435 nm. A sigmoidal best fit analysis was applied to the fluorescence data and the pKa value was measured as the pH giving rise to half-maximal fluorescent intensity.

Structures are written as SMILES.

With `CCCCCCCCC(CCCCCCCC)CNC(=O)CCCCCN(CCO)CCN(CCCCCC(=O)OCC(CCCCCCCC)CCCCCCCC)C1CCC1` [Compound 15], in data set [1], the polydispersity is 0.022 and the “size (nm)” value is listed as 65.95 nm. In addition, the “Encapsulation Efficiency” value in data set [2] is 86.0%. The “Apparent Pka” value in data set [3] was 6.724.
As to `CCCCC/C=C\CCCC(CCC/C=C\CCCCC)COC(=O)CCCCCN(CCO)CCN(CCCCCC(=O)OCC(CCC/C=C\CCCCC)CCC/C=C\CCCCC)C1CCCCC1` [Compound 18], in data set [1], the polydispersity is given as 0.049 and the “size (nm)” value came to 56.64 nm. Besides, in data set [2], the “Encapsulation Efficiency” value is recorded as 96.4%. The “Apparent Pka” value in data set [3] is given as 6.018.
The matching figures for `CCCCCCCCC(CCCCCCCC)CNC(=O)CCCCCN(CCO)CCN(CCCCCC(=O)OCC(CCCCCCCC)CCCCCCCC)C1CCCCC1` [Compound 23]: 0.039, 57.5 nm, 95.5% and 6.686.
The matching figures for `CCCCCCCCC(CCCCCCCC)COC(=O)CCCCCN(CC=C(C)C)CCN(CCCCCC(=O)OCC(CCCCCCCC)CCCCCCCC)C1CCC(O)CC1` (stereo not shown) [Compound 126]: 0.047, 61.57 nm, 92.26% and 6.212.
In the same order, the values of `CCCCCCCCC(CCCCCCCC)COC(=O)/C=C/CN(CCO)CCN(CCCCCC(=O)OCC(CCCCCCCC)CCCCCCCC)C1CCC1` [Compound 63] are 0.044, 87.84 nm, 93.93% and 6.147.
`CCCCCCCCCCCOC(=O)CCCCCN(CCN(CCO)CCCCC(COC(=O)CCCCCCC)COC(=O)CCCCCCC)C1CCC1` [Compound 182]: in data set [1], the polydispersity was 0.09 and the “size (nm)” value came to 99.97 nm. Also, the “Encapsulation Efficiency” value in data set [2] was 91.00%. In data set [3], the “Apparent Pka” value turned out to be 6.862.
In the same order, the values of `CCCCCCCCC(CCCCCC)CNC(=O)CCCCCCN(CCO)CCN(CCCCC(COC(=O)CCCCCCC)COC(=O)CCCCCCC)C1CCCCC1` (stereo not shown) [Compound 231] are 0.036, 73.66 nm, 92.25% and 6.712.
The matching figures for `CCCCCCCCC(CCCCCCCC)COC(=O)CCCCCN(CCO)CCN(CCCCCC(=O)OCC(CCCCCCCC)CCCCCCCC)Cc1ccc(C)cc1` [Compound 39]: 0.034, 55.02 nm, 84.0% and 5.740.
In the same order, the values of `CCCCCCCCC(CCCCCC)CNC(=O)CCCCCN(CCCCCO)CCN(CCCCC(COC(=O)CCCCCCC)COC(=O)CCCCCCC)C1CCCCCC1` (stereo not shown) [Compound 225] are 0.033, 76.81 nm, 92.20% and 6.668.
`C/C=C/CN(CCCCCC(=O)OCC(CCCCCCCC)CCCCCCCC)CCN(CCO)CCCCCC(=O)OCC(CCCCCCCC)CCCCCCCC` [Compound 41]: in data set [1], the polydispersity is given as 0.067 and the “size (nm)” value is given as 55.24 nm. The “Encapsulation Efficiency” value in data set [2] came to 88.2%. Further, the “Apparent Pka” value in data set [3] is reported as 6.134.
In the same order, the values of `CCCCCCCCCCCOC(=O)CCCCCN(CCN(CCO)CCCCC(COC(=O)CCCCCCC)COC(=O)CCCCCCC)C1CCCC1` [Compound 183] are 0.032, 103.2 nm, 92.26% and 6.858.
The matching figures for `CCCCCCCCC(CCCCCC)CNC(=O)CCCCCN(CCO)CCN(CCCCC(COC(=O)CCCCCCC)COC(=O)CCCCCCC)C1CCC1` (stereo not shown) [Compound 136]: 0.040, 84.74 nm, 88.64% and 6.831.
For the molecule `CCCCCCCCC(CCCCCC)CNC(=O)CCCCCN(CCCCN(CCO)CCCCC(COC(=O)CCCCCCC)COC(=O)CCCCCCC)C1CCCC1` (stereo not shown) [Compound 196], in data set [1], the polydispersity came to 0.18 and the “size (nm)” value was found to be 104.1 nm. In data set [2], the “Encapsulation Efficiency” value is 86.33%.
In the case of `CCCCCCCC(=O)OCC(CCCCN1CCC(N(CCO)CCCCC(COC(=O)CCCCCCC)COC(=O)CCCCCCC)CC1)COC(=O)CCCCCCC` [Compound 180], in data set [3], the “Apparent Pka” value turned out to be 6.699.
For `CCCCCCCCC(CCCCCC)CNC(=O)CCN(CCO)CCN(CCCCC(COC(=O)CCCCCCC)COC(=O)CCCCCCC)C1CCCCCCC1` (stereo not shown) [Compound 213], in data set [1], the polydispersity worked out at 0.07 and the “size (nm)” value is reported as 110.8 nm. Besides, the “Encapsulation Efficiency” value in data set [2] came to 88.38%.
In the same order, the values of `CCCCCCCCC(CCCCCC)COC(=O)CCCCCN(CCO)CCN(CCCCC(COC(=O)CCCCCCC)COC(=O)CCCCCCC)C1CCC1` (stereo not shown) [Compound 135] are 0.035, 124.60 nm and 87.16%.
In the same order, the values of `CCCCCCCCC(CCCCCC)COC(=O)CCCCCN(CC=C(C)C)CCN(CCO)CCCCC(COC(=O)CCCCCCC)COC(=O)CCCCCCC` (stereo not shown) [Compound 148] are 0.081, 64.31 nm and 90.40%.
As to `CCCCCCCCCCCC(=O)OCCCCCN(CCN(CCO)CCCCCNC(=O)CC(CCCCCCCC)CCCCCCCC)C1CCCCC1` [Compound 59], in data set [1], the polydispersity was found to be 0.063 and the “size (nm)” value was determined as 70.3 nm. Also, the “Encapsulation Efficiency” value in data set [2] is listed as 95.1%.
Take `CCCCCCCCC(CCCCCC)COC(=O)CCCCCN(C)CCN(CCO)CCCCC(COC(=O)CCCCCCC)COC(=O)CCCCCCC` (stereo not shown) [Compound 156]: in data set [1], the polydispersity is given as 0.190 and the “size (nm)” value is on record as 73.36 nm. The “Encapsulation Efficiency” value in data set [2] stood at 89.69%.
The matching figures for `CCCCCCCCCCCOC(=O)CCCCCN(CCN(CCO)CCCCCC(=O)OCC(CCCCCCC)CCCCCCC)C1CCCCC1` [Compound 22]: 0.047, 87.7 nm and 95.5%.
In the same order, the values of `CCCCCCCCC(CCCCCC)COC(=O)CCCCCN(CCO)CCN(CCCCC(COC(=O)CCCCCCC)COC(=O)CCCCCCC)C1CCCCC1` (stereo not shown) [Compound 139] are 0.076, 59.97 nm and 87.81%.
In the same order, the values of `CCCCC/C=C\C/C=C\CCCCCCCC(=O)OCCCCCN(CCN(CCO)CCCCCC(=O)OCC(CCCCCCCC)CCCCCCCC)C1CCCCC1` [Compound 108] are 0.068, 67.69 nm and 91.83%.
With `CCCCCCCCC(CCCCCC)CNC(=O)CCCCCN(CC)CCN(CCO)CCCCC(COC(=O)CCCCCCC)COC(=O)CCCCCCC` (stereo not shown) [Compound 159], in data set [1], the polydispersity was 0.080 and the “size (nm)” value is reported as 77.72 nm. The “Encapsulation Efficiency” value in data set [2] worked out at 90.71%.
The matching figures for `CCCCCCCCC(CCCCCC)CNC(=O)CCN(CCO)CCN(CCCCC(COC(=O)CCCCCCC)COC(=O)CCCCCCC)C1CCCCCC1` (stereo not shown) [Compound 212]: 0.048, 122.1 nm and 87.31%.
As for `CCCCCCCCCCCOC(=O)CCCCCN(CCN(CCO)CCCCCNP(=O)(OCCCCCCCCC)OCCCCCCCCC)C1CCCCC1` [Compound 100], in data set [1], the polydispersity turned out to be 0.085 and the “size (nm)” value is recorded as 93.16 nm. Also, in data set [2], the “Encapsulation Efficiency” value is given as 85.49%.
For the molecule `CCCCCCCCC(CCCCCCCC)CNC(=O)CCCCCN1CCC(N(CCO)CCCCCC(=O)NCC(CCCCCCCC)CCCCCCCC)CC1` [Compound 172], in data set [1], the polydispersity turned out to be 0.061 and the “size (nm)” value came to 69.59 nm. Moreover, the “Encapsulation Efficiency” value in data set [2] worked out at 93.55%.
In the same order, the values of `CCCCCCCCCC(=O)OCC(CCCCN(CCO)CCN(CCCCC(COC(=O)CCCCCCCCC)COC(=O)CCCCCCCCC)C1CCC1)COC(=O)CCCCCCCCC` [Compound 167] are 0.128, 69.47 nm and 91.97%.
The matching figures for `CCCCCCCC(=O)OCC(CCCCN(CC=C(C)C)CCN(CCO)CCCCC(COC(=O)CCCCCCC)COC(=O)CCCCCCC)COC(=O)CCCCCCC` [Compound 162]: 0.068, 82.68 nm and 85.46%.
